In patent publication US20250326732A1 (Pretzel Therapeutics, Inc., priority 2021, published 2025):
pIC50: −log10 of the molar value.

target: POLRMT (Homo sapiens (Human), UniProt O00411); assay: homogeneous TR-FRET assay of mitochondrial transcription (inhibition of POLRMT); format: biochemical; conditions: 7.5 nM POLRMT, 15 nM TFB2M, 30 nM TFAM, 0.5 nM DNA template, 500 μM NTPs, 37° C. for 60 minutes
How it was run: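 POLRMT transcription from linearized pUC-LSP DNA template; RNA product detected by hybridization of ATTO647 acceptor (1 nM) and biotinylated donor (3 nM) probes plus Europium-streptavidin. Reaction stopped with EDTA/700 mM NaCl buffer, pH 7.5.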

POLRMT, sequence (O00411 42-1230): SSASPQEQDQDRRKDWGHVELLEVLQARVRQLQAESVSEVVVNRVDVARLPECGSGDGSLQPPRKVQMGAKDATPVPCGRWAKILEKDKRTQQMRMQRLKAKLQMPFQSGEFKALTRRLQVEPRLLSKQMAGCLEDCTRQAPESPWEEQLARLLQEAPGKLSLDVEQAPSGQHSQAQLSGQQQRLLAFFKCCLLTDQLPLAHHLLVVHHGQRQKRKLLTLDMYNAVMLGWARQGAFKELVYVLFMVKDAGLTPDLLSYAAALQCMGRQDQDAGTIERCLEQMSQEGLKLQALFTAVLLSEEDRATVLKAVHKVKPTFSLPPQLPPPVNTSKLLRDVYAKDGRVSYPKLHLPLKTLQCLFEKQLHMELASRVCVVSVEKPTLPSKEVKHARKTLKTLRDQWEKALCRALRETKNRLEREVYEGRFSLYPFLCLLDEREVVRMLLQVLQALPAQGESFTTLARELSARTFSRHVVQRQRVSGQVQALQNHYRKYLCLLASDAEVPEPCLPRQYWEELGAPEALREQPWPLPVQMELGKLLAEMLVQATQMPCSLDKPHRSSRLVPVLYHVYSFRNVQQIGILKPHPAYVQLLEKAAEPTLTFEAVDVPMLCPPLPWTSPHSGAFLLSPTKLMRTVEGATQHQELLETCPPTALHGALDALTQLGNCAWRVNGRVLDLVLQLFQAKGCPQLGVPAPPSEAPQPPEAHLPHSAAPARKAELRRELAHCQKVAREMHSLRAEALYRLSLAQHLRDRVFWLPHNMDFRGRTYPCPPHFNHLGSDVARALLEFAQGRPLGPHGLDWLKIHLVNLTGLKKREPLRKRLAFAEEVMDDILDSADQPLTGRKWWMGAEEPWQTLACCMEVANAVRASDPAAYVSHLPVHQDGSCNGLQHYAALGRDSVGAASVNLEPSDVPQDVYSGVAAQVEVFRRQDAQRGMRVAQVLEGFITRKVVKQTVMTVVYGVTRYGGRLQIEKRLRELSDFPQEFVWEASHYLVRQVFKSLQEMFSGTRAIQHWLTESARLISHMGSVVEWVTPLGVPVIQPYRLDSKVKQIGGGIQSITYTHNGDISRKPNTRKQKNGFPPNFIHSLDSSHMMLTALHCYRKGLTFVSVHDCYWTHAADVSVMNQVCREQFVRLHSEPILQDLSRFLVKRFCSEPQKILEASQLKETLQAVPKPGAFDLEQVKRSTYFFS

SMILES | pIC50
Cc1ccccc1-c1cc(=O)oc2cc(N(C)CC(=O)O)ccc12 [Example 76, N-methyl-N-(2-oxo-4-(o-tolyl)-2H-chromen-7-yl)glycine] | 6.70
CC(=O)N(C)C(C)c1ccc2c(-c3ccccc3C)cc(=O)oc2c1 (centres unmarked) [Example 77, N-methyl-N-(1-(2-oxo-4-(o-tolyl)-2H-chromen-7-yl)ethyl)acetamide] | 5.70
Cc1ccccc1-c1cc(=O)oc2cc(C(C)N(C)C)ccc12 (centres unmarked) [Example 78, 7-(1-(dimethylamino)ethyl)-4-(o-tolyl)-2H-chromen-2-one] | 4.36
Cc1ccccc1-c1cc(=O)oc2cc(NCC(=O)N3CCC[C@H](C(=O)O)C3)ccc12 [Example 79, (S)-1-((2-oxo-4-(o-tolyl)-2H-chromen-7-yl)glycyl)piperidine-3-carboxylic acid] | 5.70
Cc1ccccc1-c1cc(=O)oc2cc(N[C@H](C)C(=O)N3CCC[C@H](C(=O)O)C3)ccc12 [Example 80, (S)-1-((2-oxo-4-(o-tolyl)-2H-chromen-7-yl)-D-alanyl)piperidine-3-carboxylic acid] | 7.00
Cc1ccccc1-c1cc(=O)oc2cc(C(C)N)ccc12 (centres unmarked) [Example 91, 7-(1-aminoethyl)-4-(o-tolyl)-2H-chromen-2-one] | 4.70
CC(=O)NC(C)c1ccc2c(-c3ccccc3C)cc(=O)oc2c1 (centres unmarked) [Example 96, N-(1-(2-oxo-4-(o-tolyl)-2H-chromen-7-yl)ethyl)acetamide] | 5.70
CN(CC(=O)O)c1ccc2c(-c3ccccc3)cc(=O)oc2c1 [Example 101, N-methyl-N-(2-oxo-4-phenyl-2H-chromen-7-yl)glycine] | 5.00
COC[C@H](Nc1ccc2c(-c3ccccc3C)cc(=O)oc2c1)C(=O)O [Example 102, O-methyl-N-(2-oxo-4-(o-tolyl)-2H-chromen-7-yl) serine] | 5.52
COC[C@H](Nc1ccc2c(-c3ccccc3C)cc(=O)oc2c1)C(=O)N1CCC[C@H](C(=O)O)C1 [Example 103, (S)-1-(O-methyl-N-(2-oxo-4-(o-tolyl)-2H-chromen-7-yl)-seryl)piperidine-3-carboxylic acid] | 5.30
COC[C@@H](Nc1ccc2c(-c3ccccc3C)cc(=O)oc2c1)C(=O)N1CCC[C@H](C(=O)O)C1 [Example 104, (S)-1-(O-methyl-N-(2-oxo-4-(o-tolyl)-2H-chromen-7-yl)-D-seryl)piperidine-3-carboxylic acid] | 6.52
CN(CC(=O)O)c1ccc2c(-c3ccc(F)cc3Cl)cc(=O)oc2c1 [Example 105, N-(4-(2-chloro-4-fluorophenyl)-2-oxo-2H-chromen-7-yl)-N-methylglycine] | 6.30
Cc1ccccc1-c1cc(=O)oc2cc(N(C)CC(N)=O)ccc12 [Example 106, 2-(methyl(2-oxo-4-(o-tolyl)-2H-chromen-7-yl)amino)acetamide] | 6.70
Cc1ccccc1-c1cc(=O)oc2cc(NCc3ccccc3)ccc12 [Example 107, 7-(benzylamino)-4-(o-tolyl)-2H-chromen-2-one] | 5.52
Cc1ccccc1-c1cc(=O)oc2cc(N(C)[C@H](C)C(=O)O)ccc12 [Example 108, N-methyl-N-(2-oxo-4-(o-tolyl)-2H-chromen-7-yl)-D-alanine] | 7.40
CC(=O)NC1CCN(C(=O)c2ccc3c(-c4ccccc4C)cc(=O)oc3c2)CC1 [Example 109, N-(1-(2-oxo-4-(o-tolyl)-2H-chromene-7-carbonyl)piperidin-4-yl)acetamide] | 5.30
CC(=O)N(C)C1CCN(C(=O)c2ccc3c(-c4ccccc4C)cc(=O)oc3c2)CC1 [Example 110, N-methyl-N-(1-(2-oxo-4-(o-tolyl)-2H-chromene-7-carbonyl)piperidin-4-yl)acetamide] | 5.10
Cc1ccccc1-c1cc(=O)oc2cc(C(=O)N(C)C3CCOCC3)ccc12 [Example 111, N-methyl-2-oxo-N-(tetrahydro-2H-pyran-4-yl)-4-(o-tolyl)-2H-chromene-7-carboxamide] | 4.19
Cc1ccccc1-c1cc(=O)oc2cc(C(=O)N(C)CC(N)=O)ccc12 [Example 112, N-(2-amino-2-oxoethyl)-N-methyl-2-oxo-4-(o-tolyl)-2H-chromene-7-carboxamide] | 4.57
Cc1ccccc1-c1cc(=O)oc2cc(C(=O)NCC(N)=O)ccc12 [Example 113, N-(2-amino-2-oxoethyl)-2-oxo-4-(o-tolyl)-2H-chromene-7-carboxamide] | 4.92
Cc1ccccc1-c1cc(=O)oc2cc(C(=O)N(C)Cc3nccn3C)ccc12 [Example 114, N-methyl-N-((1-methyl-1H-imidazol-2-yl)methyl)-2-oxo-4-(o-tolyl)-2H-chromene-7-carboxamide] | 4.44
COCC1CN(C(=O)c2ccc3c(-c4ccccc4C)cc(=O)oc3c2)C1 [Example 115, 7-(3-(methoxymethyl)azetidine-1-carbonyl)-4-(o-tolyl)-2H-chromen-2-one] | 4.74

SMILES | pIC50
COC[C@@H]1CCN(C(=O)c2ccc3c(-c4ccccc4C)cc(=O)oc3c2)C1 [Example 116, (R)-7-(3-(methoxymethyl)pyrrolidine-1-carbonyl)-4-(o-tolyl)-2H-chromen-2-one] | 4.35
Cc1ccccc1-c1cc(=O)oc2cc(C(=O)N(C)C3CCCOC3)ccc12 (centres unmarked) [Example 117, N-methyl-2-oxo-N-(tetrahydro-2H-pyran-3-yl)-4-(o-tolyl)-2H-chromene-7-carboxamide] | 4.19
Cc1ccccc1-c1cc(=O)oc2cc(C(=O)N3CC(CO)C3)ccc12 [Example 118, 7-(3-(hydroxymethyl)azetidine-1-carbonyl)-4-(o-tolyl)-2H-chromen-2-one] | 4.82
Cc1ccccc1-c1cc(=O)oc2cc(NCc3ccn(C)n3)ccc12 [Example 119, 7-(((1-methyl-1H-pyrazol-3-yl)methyl)amino)-4-(o-tolyl)-2H-chromen-2-one] | 5.70
Cc1ccccc1-c1cc(=O)oc2cc(C(=O)NCc3nccn3C)ccc12 [Example 122, N-((1-methyl-1H-imidazol-2-yl)methyl)-2-oxo-4-(o-tolyl)-2H-chromene-7-carboxamide] | 5.30
COC[C@H]1CCN(C(=O)c2ccc3c(-c4ccccc4C)cc(=O)oc3c2)C1 [Example 123, (S)-7-(3-(methoxymethyl)pyrrolidine-1-carbonyl)-4-(o-tolyl)-2H-chromen-2-one] | 4.80
Cc1ccccc1-c1cc(=O)oc2cc(C(=O)N3CC(C)(CO)C3)ccc12 [Example 124, 7-(3-(hydroxymethyl)-3-methylazetidine-1-carbonyl)-4-(o-tolyl)-2H-chromen-2-one] | 5.52
Cc1ccccc1-c1cc(=O)oc2cc(N(C)Cc3ccn(C)n3)ccc12 [Example 125, 7-(methyl((1-methyl-1H-pyrazol-3-yl)methyl)amino)-4-(o-tolyl)-2H-chromen-2-one] | 7.00
Cc1ccccc1-c1cc(=O)oc2cc(N(C)Cc3ccccc3)ccc12 [Example 126, 7-[benzyl(methyl)amino]-4-(o-tolyl) chromen-2-one] | 7.30
Cc1ccccc1-c1cc(=O)oc2cc(NCC(C)(C)C(=O)O)ccc12 [Example 127, 2,2-dimethyl-3-((2-oxo-4-(o-tolyl)-2H-chromen-7-yl)amino)propanoic acid] | 6.70
Cc1ccccc1-c1cc(=O)oc2cc(N(C)CC(C)(C)C(=O)O)ccc12 [Example 128, 2,2-dimethyl-3-(methyl(2-oxo-4-(o-tolyl)-2H-chromen-7-yl)amino)propanoic acid] | 7.52
O=C(O)CCNc1ccc2c(-c3ccc(F)cc3Cl)cc(=O)oc2c1 [Example 129, 3-((4-(2-chloro-4-fluorophenyl)-2-oxo-2H-chromen-7-yl)amino)propanoic acid] | 5.15
CN(CCC(=O)O)c1ccc2c(-c3ccc(F)cc3Cl)cc(=O)oc2c1 [Example 130, 3-((4-(2-chloro-4-fluorophenyl)-2-oxo-2H-chromen-7-yl)(methyl)amino)propanoic acid] | 6.40
O=C(O)CCNc1ccc2c(-c3ccccc3Cl)cc(=O)oc2c1 [Example 131, 3-((4-(2-chlorophenyl)-2-oxo-2H-chromen-7-yl)amino)propanoic acid] | 5.10
CN(CCC(=O)O)c1ccc2c(-c3ccccc3Cl)cc(=O)oc2c1 [Example 132, 3-((4-(2-chlorophenyl)-2-oxo-2H-chromen-7-yl)(methyl)amino)propanoic acid] | 6.00
Cc1ccccc1-c1cc(=O)oc2cc(N(C)CCC(N)=O)ccc12 [Example 133, 3-(methyl(2-oxo-4-(o-tolyl)-2H-chromen-7-yl)amino)propanamide] | 6.15
Cc1ccccc1-c1cc(=O)oc2cc(N(C)CC(=O)NCC(N)=O)ccc12 [Example 134, N-(2-amino-2-oxoethyl)-2-(methyl(2-oxo-4-(o-tolyl)-2H-chromen-7-yl)amino)acetamide] | 6.70
CNC(=O)C1CC1c1ccc2c(-c3ccccc3C)cc(=O)oc2c1 (stereo not drawn) [Example 135, chiral-N-methyl-2-(2-oxo-4-(o-tolyl)-2H-chromen-7-yl)cyclopropane-1-carboxamide] | 5.05
CNC(=O)C1CC1c1ccc2c(-c3ccccc3C)cc(=O)oc2c1 (stereo not drawn) [Example 136, chiral-N-methyl-2-(2-oxo-4-(o-tolyl)-2H-chromen-7-yl)cyclopropane-1-carboxamide] | 6.70
CN(CCC(N)=O)c1ccc2c(-c3ccc(F)cc3Cl)cc(=O)oc2c1 [Example 137, 3-((4-(2-chloro-4-fluorophenyl)-2-oxo-2H-chromen-7-yl)(methyl)amino)propanamide] | 6.05
CNC(=O)CCN(C)c1ccc2c(-c3ccc(F)cc3Cl)cc(=O)oc2c1 [Example 138, 3-((4-(2-chloro-4-fluorophenyl)-2-oxo-2H-chromen-7-yl)(methyl)amino)-N-methylpropanamide] | 5.70
Cc1ccccc1-c1cc(=O)oc2cc(N(C)CC(=O)NC3CCOCC3)ccc12 [Example 139, 2-(methyl(2-oxo-4-(o-tolyl)-2H-chromen-7-yl)amino)-N-(tetrahydro-2H-pyran-4-yl)acetamide] | 7.00
